Measurements as given in patent US10508140B2, “Peptide having hair growth-promoting activity and/or melanin generation-promoting activity, and use thereof” (CAREGEN CO., LTD., priority 2016, dated 2019).
No end group written: not given here.

How the values were obtained:
Assay type in all cases: cell-based
Ha3-II = Ha3-II RT-PCR; settings: human hair follicle dermal papilla cells, 24 hours
Method: (§1) Human hair follicle dermal papilla cells were seeded at a density of 5×10^5 cells/well on 6-well plates, followed by incubation overnight. After changing into serum-free medium, the cells were treated with the peptides, followed by incubation for 24 hours, and then the wells were harvested to isolate RNA. After RNA quantification, cDNA synthesis was conducted using the cDNA synthesis kit (Intron, Korea), followed by PCR using PCR premix (Intron, Korea) and Ha3-II and keratin-14 primers, and then electrophoresis was performed on 5% agarose gel to compare the mRNA expression levels of the growth factors in respective sample treatment conditions.

MSX2 = MSX2 RT-PCR; settings: human hair follicle dermal papilla cells, 24 hours
Method: as §1, with “4×10^5” for “5×10^5”, “plate,” for “plates,”, “MSX2” for “Ha3-II and keratin-14”, “level” for “levels”, “factor” for “factors”, “in” for “in respective”

DKK-1 [1] = assay: DKK-1 RT-PCR; settings: human hair follicle dermal papilla cells, DKK-1 increased by DHT, 24 hours
Method: as §1, with “DKK-1” for “Ha3-II and keratin-14”

VEGF = VEGF RT-PCR; settings: human hair follicle dermal papilla cells, 24 hours
Method: as §1, with “4×10^5” for “5×10^5”, “plate,” for “plates,”, “respective KGF” for “Ha3-II”, “VEGF” for “keratin-14”, “in” for “in respective”

TRP1 = assay: Melanogenesis-related gene RT-PCR: TRP1; settings: B16F10 cell line, 72 hours, FIG. 13b
tyrosinase [2] = assay: Tyrosinase activity assay; settings: B16F10 cells, 72 hours, L-dopa, absorbance 475 nm
Method: Melanoma cell line (B16F10) cells were cultured in 6-well culture plates for 24 hours, and treated with a peptide with difference concentrations, followed by culture for 72 hours. The 6-well culture plates were loaded on ice and washed with cool PBS, and then 300 μl of 0.1 M sodium phosphate buffer (pH 6.8 lysis buffer) containing 1% Triton X-100 was added. The cells were collected in 1.5-mL tubes, and then cell membranes were disrupted by repeating five times rapid-freezing at […] and thawing. After centrifugation at 13,000 rpm for 20 minutes, the supernatant was collected in other 1.5-mL tubes, and the protein of the samples was quantified. The samples were diluted to have the same protein concentration and then dispensed in each three wells in a 96-well culture plate, and then 20 μl of 10 mM L-dopa was added, followed by incubation at 37° C. for 1 hour.

TGF-β1 = TGF-β1 RT-PCR; settings: human hair follicle dermal papilla cells, 24 hours
Method: as §1, with “4×10^5” for “5×10^5”, “plate,” for “plates,”, “TGF-β1” for “Ha3-II and keratin-14”

tyrosinase [3] = assay: Melanogenesis-related protein western blotting: tyrosinase; settings: B16F10 cell line, 72 hours
Method: (§2) Melanocytes (B16F10 cell line) were incubated on 6-well culture plates for 24 hours, and were treated with the peptides of the present invention with different concentrations. After 72-hour incubation, the cells were lysed, and the cells were subjected to western blotting using specific antibodies (two types, both from Santa Cruz Biotechnology, USA) to investigate the expression of MITF and tyrosinase, which are factors involved in melanogenesis.

DKK-1 [4] = assay: DKK-1 western blotting; settings: human hair follicle dermal papilla cells, DKK-1 increased by DHT, 24 hours
Method: (§3) Human hair follicle dermal papilla cells were seeded at a density of 4×10^5 cells/well on 6-well plate, followed by incubation overnight. After changing into serum-free medium, the cells were treated with the peptides, followed by incubation for 24 hours, and then the wells were harvested to prepare cell lysate. Western blotting was performed using DKK-1 antibodies (Santa Cruz Biotechnology, USA) to compare protein expression patterns.

MITF [5] = assay: Melanogenesis-related protein western blotting: MITF; settings: B16F10 cell line, 72 hours
Method: as §2

[6] = system: Human hair follicle dermal papilla cells; assay: DPC proliferation assay (MTT); settings: serum-free medium, incubation for 3 days, absorbance 550 nm
Method: Human hair follicle dermal papilla cells were seeded at a density of 2×10^3 cells/well on 96-well plates, followed by incubation overnight. After changing into serum-free medium, the cells were treated with the peptides, followed by incubation for 3 days, and then the wells were treated with 4 mg/ml MTT solution, followed by reaction for 4 hours. The resulting formazan was solubilized with DNSO, and then the absorbance was measured at 550 nm using a microplate reader.

ERK = assay: p-ERK western blotting; settings: human hair follicle dermal papilla cells, 15 and 30 minutes
Method: as §3, with “15 and 30 minutes,” for “24 hours,”, “PI3K” for “DKK-1”, “Biotechnology, USA) and phospho-ERK antibody (Cell Signaling Technology,” for “Biotechnology,”

Bcl-2 = Bcl-2 western blotting; settings: human hair follicle dermal papilla cells, 24 hours
Method: as §3, with “Bcl-2 and Bax” for “DKK-1”

keratin-14 = assay: Keratin-14 RT-PCR; settings: human hair follicle dermal papilla cells, 24 hours
Method: as §1

β-catenin = assay: β-Catenin activity test (western blotting, nuclear and cytoplasmic proteins); settings: human hair follicle dermal papilla cells, 15 and 30 minutes
Method: as §3, with “plates,” for “plate,”, “15 and 30 minutes,” for “24 hours,”, “isolate nuclear and cytoplasmic proteins.” for “prepare cell lysate.”, “β-catenin” for “DKK-1 antibodies”, “β-catenin” for “protein”

tyrosinase [7] = assay: Melanogenesis-related gene RT-PCR: tyrosinase; settings: B16F10 cell line, 72 hours
Method: (§4) Melanocytes (B16F10 cell line) were incubated on 6-well culture plates in an incubator for 24 hours, and were treated with the peptides of the present invention with different concentrations. After RNA was extracted from the cells incubated for 72 hours, cDNA was prepared. PCR was performed by using respective primers specific to MITF and tyrosinase, which are factors involved in melanogenesis, and the expression changes of the respective genes were observed.

[8] = system: melanocytes (B16F10 cell line); assay: Melanin measurement assay; settings: 72 hours, absorbance 490 nm
Method: After melanocytes (B16F10 cell line) in 6-well plates were cultured in an incubator at 37° C. for 24 hours, the medium of each plate was removed and exchanged with a fresh medium, followed by treatment with the present peptide with different concentrations. After the incubation for 72 hours, the culture medium was removed, and the cells were taken off and then transferred into 1.5-ml tubes, followed by centrifugation at 13,000 rpm for 3 minutes. The supernatant was removed, and cell pellets were collected to observe melanin. Then, 150 μl of 2 M NaOH was added to the cell pellets to lyse intracellular melanin at 60° C. for 30 minutes. Then, 100 μl of the supernatant obtained from the lysis was added into each well of 96-well plates, and the absorbance was measured at 490 nm.

Bax = Bax western blotting; settings: human hair follicle dermal papilla cells, 24 hours
Method: as §3, with “Bcl-2 and Bax” for “DKK-1”

MITF [9] = assay: Melanogenesis-related gene RT-PCR: MITF; settings: B16F10 cell line, 72 hours
Method: as §4

PI3K = PI3K western blotting; settings: human hair follicle dermal papilla cells, 15 and 30 minutes
Method: as §3, with “15 and 30 minutes,” for “24 hours,”, “PI3K” for “DKK-1”, “Biotechnology, USA) and phospho-ERK antibody (Cell Signaling Technology,” for “Biotechnology,”

KGF = KGF RT-PCR; settings: human hair follicle dermal papilla cells, 24 hours
Method: as §1, with “4×10^5” for “5×10^5”, “plate,” for “plates,”, “respective KGF” for “Ha3-II”, “VEGF” for “keratin-14”, “in” for “in respective”

CREB = assay: Melanogenesis-related protein activity assay: CREB phosphorylation (western blotting); settings: B16F10 cell line, 72 hours
Method: Melanocytes (B16F10 cell line) were incubated on 6-well culture plates in an incubator for 24 hours, and were treated with the peptide of the present invention with different concentrations. After 72-hour incubation, the cells were lysed, and the cells were subjected to western blotting using specific antibodies (Cell Signaling Technology, USA) to investigate the phosphorylation level of CREB, which is a signaling substance involved in melanogenesis.

Sequence | mRNA expression of DKK-1 (DKK-1 [1]) | tyrosinase activity (tyrosinase [2]) | expression of TGF-β1 (mRNA) (TGF-β1) | protein expression of tyrosinase enzyme (tyrosinase [3]) | protein expression of DKK-1 (DKK-1 [4]) | protein expression of MITF transcription factor (MITF [5]) | growth of human hair follicle dermal papilla cells [6] | phosphorylation level of ERK (ERK) | expression of the anti-apoptotic protein Bcl-2 (Bcl-2) | mRNA expression of keratin-14 (keratin-14) | activity of β-catenin (β-catenin) | mRNA expression of tyrosinase enzyme (tyrosinase [7]) | melanogenesis [8] | expression of the apoptosis-related protein Bax (Bax) | mRNA expression of MITF transcription factor (MITF [9]) | also measured
WKWRSADTL [SEQ ID NO: 1] | decreased | increased | inhibited | increased | decreased | increased | stimulated in a dose-dependent manner | increased | increased | increased | increased | increased | increased | decreased | increased | mRNA expression of Ha3-II (Ha3-II): increased; expression of MSX2 (mRNA) (MSX2): increased; expression of VEGF (mRNA) (VEGF): increased; mRNA expression of TRP1 (TRP1): increases
KWKRSADTL [SEQ ID NO: 2] | decreased | increased | inhibited | increases | decreased | increases | stimulated in a dose-dependent manner | increase | increased | increased | increased | increased | increased | decreased | increased | expression of PI3K (PI3K): increase; expression of KGF (mRNA) (KGF): increased; phosphorylation level of CREB (CREB): increased
